Measurements published in US20250171417A1, “HETEROCYCLIC DERIVATIVE, AND COMPOSITION AND PHARMACEUTICAL USE THEREOF” (Xizang Haisco Pharmaceutical Co., Ltd., priority 2021, published 2025).
Like-named read-outs stand apart in the source and are kept apart here.

Columns and labels:
[1] = tested on: Prostate cancer cells 22RV1; experiment: Experiment on inhibiting 22RV1 cell proliferation (CellTiter-Glo, 7 days); assay type: cell-based; conditions: Homo sapiens, 168 h, 22RV1 cells, 7 days incubation, read-out: IC50 values for inhibition of 22RVI cells
Procedure, shortened: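 22RV1 cells at 2000/well in 1% charcoal-stripped-FBS phenol red-free medium, treated next day with compound for 7 days at 37 °C, 5% CO2. Viability by CellTiter-Glo luminescence; inhibition relative to DMSO vehicle, IC50 from dose-response fit.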

[2] = Pharmacokinetic test in rats; assay type: in vivo; conditions: rat, plasma, po, male SD rats; for bioavailability: i.g. 5 mg/kg vs intravenous 2 mg/kg; for AUC(0-t): i.g. 5 mg/kg
Experimental: Test objective: In this experiment, a single dose of each test compound was administered to SD rats intravenously and intragastrically, and the concentrations of the test compounds in plasma of rats were measured to evaluate the pharmacokinetic characteristics of the test compounds in rats.
Experimental animals: male SD rats, 200-250 g, 6-8 weeks old, 6 rats/compound, purchased from Chengdu Ddossy Experimental Animals Co., Ltd.
Experimental method: on the day of the test, 6 SD rats were randomly grouped according to their body weight; the animals were fasted with water available for 12 to 14 hours one day before the administration of a test compound, and were fed 4 hours after the administration.
Sampling: Before and after the administration, 0.1 mL of blood samples were drawn from the orbits of the animals under isoflurane anesthesia, and placed in an EDTAK2 centrifuge tube. Centrifugation was carried out at 5000 rpm at 4° C. for 10 min, and the plasma was collected.
Time points for plasma collection in IV&PO group: 0, 5 min, 15 min, 30 min, 1 h, 2 h, 4 h, 6 h, 8 h, and 24 h.
Before analysis and detection, all samples were stored at −60° C. The samples were analyzed quantitatively by LC-MS/MS.

[3] = cells without a unit of their own (μM)
[4] = cells with nM printed beside the value

| Compound | IC50 [1, 3] [µM] | bioavailability [2] [%] | AUC(0-t) [2] [ng·h/mL] | IC50 [1, 4] [µM] |
| --- | --- | --- | --- | --- |
| CC(C)(C(=O)Nc1ccc(C#N)c(C(F)(F)F)c1)n1cc(C#CC2CN(c3ccc4c(c3)CN(C3CCC(=O)NC3=O)C4=O)C2)cn1 (centres unmarked) [Compound 6] | < 1 | 47.3 ± 16 | 8960 ± 2940 | – |
| CC(C)(C(=O)Nc1ccc(C#N)c(Cl)c1)n1cc(C#CC2CN(c3ccc4c(c3)C(=O)N(C3CCC(=O)NC3=O)C4=O)C2)cn1 (centres unmarked) [Compound 12, N-(3-chloro-4-cyanophenyl)-2-(4-((1-(2-(2,6-dioxopiperidin-3-yl)-1,3-dioxoisoindolin-5-yl)azetidin-3-yl)ethynyl)-1H-pyrazol-1-yl)-2-methylpropanamide] | – | 73 ± 7.2 | 70500 ± 6980 | < 0.05 |
| Cc1cc(NC(=O)C(C)(C)n2cc(C#CC3CN(c4ccc5c(c4)C(=O)N(C4CCC(=O)NC4=O)C5=O)C3)cn2)ccc1C#N (centres unmarked) [Compound 13, N-(4-cyano-3-methylphenyl)-2-(4-((1-(2-(2,6-dioxopiperidin-3-yl)-1,3-dioxoisoindolin-5-yl)azetidin-3-yl)ethynyl)-1H-pyrazol-1-yl)-2-methylpropanamide] | < 1 | 77.8 ± 8.5 | 57800 ± 6300 | – |
| CC(C)(C(=O)Nc1ccc(C#N)cc1Cl)n1cc(C#CC2CN(c3ccc4c(c3)C(=O)N(C3CCC(=O)NC3=O)C4=O)C2)cn1 (centres unmarked) [Compound 20, N-(2-chloro-4-cyanophenyl)-2-(4-((1-(2-(2,6-dioxopiperidin-3-yl)-1,3-dioxoisoindolin-5-yl)azetidin-3-yl)ethynyl)-1H-pyrazol-1-yl)-2-methylpropanamide] | – | 62 ± 23 | 16000 ± 5820 | < 0.05 |
| CC(C)(C(=O)Nc1ccc(C(F)(F)F)cc1F)n1cc(C#CC2CN(c3ccc4c(c3)C(=O)N(C3CCC(=O)NC3=O)C4=O)C2)cn1 (centres unmarked) [Compound 31, N-(2-fluoro-4-(trifluoromethyl)phenyl)-2-(4-((1-(2-(2,6-dioxopiperidin-3-yl)-1,3-dioxoisoindolin-5-yl)azetidin-3-yl)ethynyl)-1H-pyrazol-1-yl)-2-methylpropanamide] | – | – | 39700 ± 1890 | < 0.1 |
| O=C1CCC(N2C(=O)c3cc(F)c(N4CC(C#Cc5cnn(C6(C(=O)Nc7ccc(C(F)(F)F)cc7Cl)CCC6)c5)C4)cc3C2=O)C(=O)N1 (centres unmarked) [Compound 33] | < 1 | 55.3 ± 5.4 | 9390 ± 916 | – |
| CC(C)(C(=O)Nc1ccc(C#N)c(Br)c1)n1cc(C#CC2CN(c3ccc4c(c3)C(=O)N(C3CCC(=O)NC3=O)C4=O)C2)cn1 (centres unmarked) [Compound 37, N-(3-bromo-4-cyanophenyl)-2-(4-((1-(2-(2,6-dioxopiperidin-3-yl)-1,3-dioxoisoindolin-5-yl)azetidin-3-yl)ethynyl)-1H-pyrazol-1-yl)-2-methylpropanamide] | – | 69.8 ± 28 | 55800 ± 22600 | < 0.05 |
| CC(C)(C(=O)Nc1ccc(C#N)c(N2CCCC2)c1)n1cc(C#CC2CN(c3ccc4c(c3)C(=O)N(C3CCC(=O)NC3=O)C4=O)C2)cn1 (centres unmarked) [Compound 38, N-(4-cyano-3-(pyrrolidin-1-yl)phenyl)-2-(4-((1-(2-(2,6-dioxopiperidin-3-yl)-1,3-dioxoisoindolin-5-yl)azetidin-3-yl)ethynyl)-1H-pyrazol-1-yl)-2-methylpropanamide] | – | 43.5 ± 7.3 | 7200 ± 1210 | < 0.05 |
| N#Cc1ccc(NC(=O)Cn2cc(C#CC3CN(c4ccc5c(c4)C(=O)N(C4CCC(=O)NC4=O)C5=O)C3)cn2)cc1C(F)(F)F (centres unmarked) [Compound 47, N-(4-cyano-3-(trifluoromethyl)phenyl)-2-(4-((1-(2-(2,6-dioxopiperidin-3-yl)-1,3-dioxoisoindolin-S-yl)azetidin-3-yl)ethynyl)-1H-pyrazol-1-yl) acetamide] | – | 37.7 ± 13 | 11300 ± 3880 | < 0.05 |
| CC(C)(C(=O)Nc1ccc(C(F)(F)F)cc1-n1cccc1)n1cc(C#CC2CN(c3ccc4c(c3)C(=O)N(C3CCC(=O)NC3=O)C4=O)C2)cn1 (centres unmarked) [Compound 133, N-(2-(1H-pyrrol-1-yl)-4-(trifluoromethyl)phenyl)-2-(4-((1-(2-(2,6-dioxopiperidin-3-yl)-1,3-dioxoisoindolin-5-yl)azetidin-3-yl)ethynyl)-1H-pyrazol-1-yl)-2-methylpropanamide] | – | 70.3 ± 7.9 | 8290 ± 935 | < 0.1 |
| CC(C)(C(=O)Nc1ccc(C#N)c2c1CCC2)n1cc(C#CC2CN(c3ccc4c(c3)C(=O)N(C3CCC(=O)NC3=O)C4=O)C2)cn1 (centres unmarked) [Compound 141, N-(7-cyano-2,3-dihydro-1H-inden-4-yl)-2-(4-((1-(2-(2,6-dioxopiperidin-3-yl)-1,3-dioxoisoindolin-5-yl)azetidin-3-yl)ethynyl)-1H-pyrazol-1-yl)-2-methylpropanamide] | – | 76.1 ± 716 | 15700 ± 3200 | < 0.05 |
| CC(C)(C(=O)Nc1ccc(C#N)cc1C1CC1)n1cc(C#CC2CN(c3ccc4c(c3)C(=O)N(C3CCC(=O)NC3=O)C4=O)C2)c(C#N)n1 (centres unmarked) [Compound 201, N-(4-cyano-2-cyclopropylphenyl)-2-(3-cyano-4-((1-(2-(2,6-dioxopiperidin-3-yl)-1,3-dioxoisoindolin-5-yl)azetidin-3-yl)ethynyl)-1H-pyrazol-1-yl)-2-methylpropanamide] | – | – | – | < 0.1 |
| CC#Cc1cc(C(F)(F)F)ccc1NC(=O)C(C)(C)n1cc(C#CC2CN(c3ccc4c(c3)C(=O)N(C3CCC(=O)NC3=O)C4=O)C2)c(C#N)n1 (centres unmarked) [Compound 202, 2-(3-cyano-4-((1-(2-(2,6-dioxopiperidin-3-yl)-1,3-dioxoisoindolin-5-yl)azetidin-3-yl)ethynyl)-1H-pyrazol-1-yl)-2-methyl-N-(2-(prop-1-yn-1-yl)-4-(trifluoromethyl)phenyl) propanamide] | – | – | – | < 0.1 |
| O=C1CCC(N2C(=O)c3ccc(N4CC(C#Cc5cn(C6(C(=O)Nc7ccc(C(F)(F)F)cc7Cl)CCC6)cn5)C4)cc3C2=O)C(=O)N1 (centres unmarked) [Trifluoroacetate of compound 139, N-(2-chloro-4-(trifluoromethyl)phenyl)-1-(4-((1-(2-(2,6-dioxopiperidin-3-yl)-1,3-dioxoisoindolin-5-yl)azetidin-3-yl)ethynyl)-1H-imidazol-1-yl)cyclobutane-1-carboxamide] | < 1 | – | – | – |
